How the values were obtained:
Assay type in all cases: cell-based
[1] = tested on: cultured cells of Taxus baccata LINN; test: Taxane-type diterpene yield and cell yield, shake culture of Taxus baccata cells with a jasmonic acid (or jasmone) added
[2] = tested on: cultured cells of Taxus baccata LINN, layer of 1.07 g/ml or less; test: Same culture using cells of the specific gravity layer of 1.07 g/ml or less (Ficoll), jasmonic acids added; details: 250 μM added on 14th day, 7 more days; cells of layer of 1.07 g/ml or less
Method: (§1) The cells with accelerated growth rate obtained by the method of Example 1 were fractionated firstly by a stainless steel mesh and cell clusters having the size of 250-840 μm were obtained. A medium having a specific gravity of 1.07 (g/ml) was produced by the use of Ficoll and the above-mentioned cells were layered over it and centrifuged at 700 rpm for 6 minutes. The cells were fractionated into two layers according to the difference of the specific gravity. The cells contained in the layer of 1.07 g/ml or less were fractionated and washed with 2% sucrose solution three times or more, to wash off Ficoll. After the washing, 1 g (fresh weight) of the cells was transferred to an Erlenmeyer flask containing 20 ml of liquid Woody Plant Medium and shake culture was carried out at 25° C. for 14 days. […] After completing the culture, the procedure of Example 1 was carried out.
as §1, with “growth rates” for “growth rate”, “Example 8” for “Example 1”, “was inoculated” for “was transferred”
as §1, with “Example 15” for “Example 1”, “was inoculated” for “was transferred”

[3] = tested on: cultured cells of Taxus brevifolia NUTT; test: Taxane yield, Taxus brevifolia cultured cells with jasmonic acids added; details: 250 μM added on 14th day, 7 more days
Method: After completing the culture, the procedure of Example 1 was carried out.
After completing the culture, the procedure of Example 8 was carried out.
After completing the culture, the procedure of Example 15 was carried out.

[4] = tested on: cultured cells of T. media; test: Taxane yield, T. media cultured cells with jasmonic acids added; details: 250 μM added on 14th day, 7 more days
Method: The procedure of Example 6 was carried out except that cultured cells of T. media were used.
The procedure of Example 13 was carried out except that cultured cells of T. media were used.
The procedure of Example 22 was carried out except that cultured cells of T. media were used.

[5] = tested on: cultured cells of Taxus baccata LINN; test: Taxane-type diterpenes in the culture medium after adding 100 μM methyl jasmonate (FIG. 1, FIG. 2); details: 7th day after the addition
Method: The analytical results of taxane-type diterpenes existed in the culture medium of Example 15 prior to the addition of 100 μM of methyl jasmonate, on the third day after the addition, and on the 7th day after the addition, are shown in FIG. 1 and FIG. 2 On the 7th day of the culture, about half of the taxol and about 70% of the baccatin III were leaked in the medium.
The procedure of Example 20 was carried out except that the methyl ester of jasmonic acid was not added.

[6] = 0.01 μM added on 14th day, 7 more days
[7] = 0.1 μM added on 14th day, 7 more days
[8] = 1 μM added on 14th day, 7 more days
[9] = 10 μM added on 14th day, 7 more days
[10] = 25 μM added 4 times every two days from 7th day, total 100 μM
[11] = 100 μM added on 7th day, 14 more days
[12] = 100 μM added on 14th day, 7 more days
[13] = 100 μM added on first day, 20 more days
[14] = 250 μM added on 14th day, 7 more days
[15] = 500 μM added on 14th day, 7 more days
[16] = 1000 μM added on 14th day, 7 more days
[17] = 50 μM added on 14th day, 7 more days

For `COC(=O)C[C@H]1CCC(=O)[C@H]1C/C=C\CCO` [methyl tuberonate], the cell yield [1, 6] was 14.3 g/L, the “yield of baccatin III” value [1, 6] was 0.4 mg/L and the yield of cephalomannine [1, 6] was 1.3 mg/L. The yield of taxol [1, 6] was 4.6 mg/L, the cell yield [1, 7] was 13.5 g/L and the “yield of baccatin III” value [1, 7] was 0.5 mg/L. It also gave a yield of cephalomannine [1, 7] of 1.5 mg/L, a yield of taxol [1, 7] of 5.5 mg/L and a cell yield [1, 8] of 13.2 g/L. For the same compound, the “yield of baccatin III” value [1, 8] was 0.7 mg/L, the yield of cephalomannine [1, 8] was 1.8 mg/L and the yield of taxol [1, 8] was 6.9 mg/L. For the same compound, the cell yield [1, 9] was 13.0 g/L, the “yield of baccatin III” value [1, 9] was 0.9 mg/L and the yield of cephalomannine [1, 9] was 2.2 mg/L. For the same compound, the yield of taxol [1, 9] was 14.8 mg/L, the cell yield [1, 10] was 12.9 g/L and the “yield of baccatin III” value [1, 10] was 13.5 mg/L. The yield of cephalomannine [1, 10] was 2.3 mg/L, the yield of taxol [1, 10] was 22.5 mg/L and the cell yield [1, 11] was 12.5 g/L. For the same compound, the “yield of baccatin III” value [1, 11] was 10.5 mg/L, the yield of cephalomannine [1, 11] was 2.1 mg/L and the yield of taxol [1, 11] was 15.6 mg/L. For the same compound, the cell yield [1, 12] was 12.7 g/L, the “yield of baccatin III” value [1, 12] was 12.2 mg/L and the yield of cephalomannine [1, 12] was 2.4 mg/L. For the same compound, the yield of taxol [1, 12] was 16.5 mg/L, the cell yield [1, 13] was 7.1 g/L and the “yield of baccatin III” value [1, 13] was 1.0 mg/L. It also gave a yield of cephalomannine [1, 13] of 1.3 mg/L, a yield of taxol [1, 13] of 4.0 mg/L and a cell yield [1, 14] of 12.5 g/L. For the same compound, the “yield of baccatin III” value [1, 14] was 14.5 mg/L, the yield of cephalomannine [1, 14] was 2.2 mg/L and the yield of taxol [1, 14] was 21.1 mg/L. For the same compound, the cell yield [1, 15] was 11.6 g/L, the “yield of baccatin III” value [1, 15] was 15.0 mg/L and the yield of cephalomannine [1, 15] was 2.3 mg/L. The yield of taxol [1, 15] was 10.6 mg/L, the cell yield [1, 16] was 7.5 g/L and the “yield of baccatin III” value [1, 16] was 1.2 mg/L. For the same compound, the yield of cephalomannine [1, 16] was 1.8 mg/L, the yield of taxol [1, 16] was 3.9 mg/L and the cell yield [2] was 12.2 g/L. The “yield of baccatin III” value [2] was 17.4 mg/L, the yield of cephalomannine [2] was 3.1 mg/L and the yield of taxol [2] was 28.3 mg/L. The cell yield [3] was 10.0 g/L, the “yield of baccatin III” value [3] was 1.4 mg/L and the yield of cephalomannine [3] was 0.5 mg/L. For the same compound, the yield of taxol [3] was 3.3 mg/L, the cell yield [4] was 9.5 g/L and the “yield of baccatin III” value [4] was 10.4 mg/L. It also gave a yield of cephalomannine [4] of 0.5 mg/L and a yield of taxol [4] of 5.4 mg/L.

`CC/C=C\C[C@H]1[C@@H](CC(=O)OC)CC[C@@H]1O` [methyl cucurbate] was tested, and the cell yield [1, 6] was 11.3 g/L, the “yield of baccatin III” value [1, 6] was 0.3 mg/L and the yield of cephalomannine [1, 6] was 2.6 mg/L. For the same compound, the yield of taxol [1, 6] was 4.3 mg/L, the cell yield [1, 7] was 11.1 g/L and the “yield of baccatin III” value [1, 7] was 0.3 mg/L. For the same compound, the yield of cephalomannine [1, 7] was 3.1 mg/L, the yield of taxol [1, 7] was 5.4 mg/L and the cell yield [1, 8] was 10.4 g/L. For the same compound, the “yield of baccatin III” value [1, 8] was 0.3 mg/L, the yield of cephalomannine [1, 8] was 3.3 mg/L and the yield of taxol [1, 8] was 6.7 mg/L. For the same compound, the cell yield [1, 9] was 10.4 g/L, the “yield of baccatin III” value [1, 9] was 0.5 mg/L and the yield of cephalomannine [1, 9] was 4.0 mg/L. The yield of taxol [1, 9] was 11.3 mg/L, the cell yield [1, 10] was 10.5 g/L and the “yield of baccatin III” value [1, 10] was 14.6 mg/L. For the same compound, the yield of cephalomannine [1, 10] was 4.1 mg/L, the yield of taxol [1, 10] was 18.2 mg/L and the cell yield [1, 11] was 9.5 g/L. For the same compound, the “yield of baccatin III” value [1, 11] was 8.4 mg/L, the yield of cephalomannine [1, 11] was 4.1 mg/L and the yield of taxol [1, 11] was 16.8 mg/L. For the same compound, the cell yield [1, 12] was 9.8 g/L, the “yield of baccatin III” value [1, 12] was 7.2 mg/L and the yield of cephalomannine [1, 12] was 4.4 mg/L. The yield of taxol [1, 12] was 15.7 mg/L, the cell yield [1, 13] was 6.1 g/L and the “yield of baccatin III” value [1, 13] was 0.8 mg/L. The yield of cephalomannine [1, 13] was 2.8 mg/L, the yield of taxol [1, 13] was 3.9 mg/L and the cell yield [1, 14] was 9.6 g/L. The “yield of baccatin III” value [1, 14] was 10.6 mg/L, the yield of cephalomannine [1, 14] was 5.3 mg/L and the yield of taxol [1, 14] was 17.7 mg/L. For the same compound, the cell yield [1, 15] was 9.3 g/L, the “yield of baccatin III” value [1, 15] was 12.0 mg/L and the yield of cephalomannine [1, 15] was 3.0 mg/L. For the same compound, the yield of taxol [1, 15] was 13.1 mg/L, the cell yield [1, 16] was 5.7 g/L and the “yield of baccatin III” value [1, 16] was 1.2 mg/L. It also gave a yield of cephalomannine [1, 16] of 2.8 mg/L, a yield of taxol [1, 16] of 4.2 mg/L and a cell yield [2] of 9.7 g/L. For the same compound, the “yield of baccatin III” value [2] was 22.2 mg/L, the yield of cephalomannine [2] was 3.8 mg/L and the yield of taxol [2] was 29.7 mg/L. For the same compound, the cell yield [3] was 11.0 g/L, the “yield of baccatin III” value [3] was 1.2 mg/L and the yield of cephalomannine [3] was 0.3 mg/L. For the same compound, the yield of taxol [3] was 1.3 mg/L, the cell yield [4] was 12.3 g/L and the “yield of baccatin III” value [4] was 5.2 mg/L. It also gave a yield of cephalomannine [4] of 0.2 mg/L and a yield of taxol [4] of 3.9 mg/L.

In the case of `CC/C=C\CC1C(=O)CCC1CC(=O)OC` (stereo not shown) [methyl jasmonate], the cell yield [1, 6] is reported as 12.2 g/L, the “yield of baccatin III” value [1, 6] is reported as 0.3 mg/L and the yield of cephalomannine [1, 6] is reported as 1.6 mg/L. The yield of taxol [1, 6] was 3.2 mg/L, the cell yield [1, 7] was 12.1 g/L and the “yield of baccatin III” value [1, 7] was 0.3 mg/L. The yield of cephalomannine [1, 7] was 1.6 mg/L, the yield of taxol [1, 7] was 4.2 mg/L and the cell yield [1, 8] was 11.3 g/L. The “yield of baccatin III” value [1, 8] was 0.4 mg/L, the yield of cephalomannine [1, 8] was 1.8 mg/L and the yield of taxol [1, 8] was 4.9 mg/L. The cell yield [1, 9] was 11.3 g/L, the “yield of baccatin III” value [1, 9] was 0.7 mg/L and the yield of cephalomannine [1, 9] was 2.1 mg/L. For the same compound, the yield of taxol [1, 9] was 10.8 mg/L, the cell yield [1, 10] was 10.7 g/L and the “yield of baccatin III” value [1, 10] was 14.9 mg/L. For the same compound, the yield of cephalomannine [1, 10] was 2.2 mg/L, the yield of taxol [1, 10] was 16.7 mg/L and the cell yield [1, 17] was 10.9 g/L. For the same compound, the “yield of baccatin III” value [1, 17] was 3.1 mg/L, the yield of cephalomannine [1, 17] was 2.2 mg/L and the yield of taxol [1, 17] was 10.9 mg/L. For the same compound, the cell yield [1, 11] was 9.7 g/L, the “yield of baccatin III” value [1, 11] was 10.6 mg/L and the yield of cephalomannine [1, 11] was 2.1 mg/L. For the same compound, the yield of taxol [1, 11] was 14.2 mg/L, the cell yield [1, 12] was 9.8 g/L and the “yield of baccatin III” value [1, 12] was 9.2 mg/L. The yield of cephalomannine [1, 12] was 2.0 mg/L, the yield of taxol [1, 12] was 13.5 mg/L and the cell yield [1, 13] was 7.2 g/L. The “yield of baccatin III” value [1, 13] was 1.2 mg/L, the yield of cephalomannine [1, 13] was 1.7 mg/L and the yield of taxol [1, 13] was 4.5 mg/L. The cell yield [1, 14] was 10.0 g/L, the “yield of baccatin III” value [1, 14] was 12.9 mg/L and the yield of cephalomannine [1, 14] was 2.0 mg/L. For the same compound, the yield of taxol [1, 14] was 15.1 mg/L, the cell yield [1, 15] was 10.6 g/L and the “yield of baccatin III” value [1, 15] was 13.0 mg/L. The yield of cephalomannine [1, 15] was 1.9 mg/L, the yield of taxol [1, 15] was 12.6 mg/L and the cell yield [1, 16] was 5.9 g/L. The “yield of baccatin III” value [1, 16] was 1.2 mg/L, the yield of cephalomannine [1, 16] was 1.8 mg/L and the yield of taxol [1, 16] was 3.1 mg/L. For the same compound, the cell yield [2] was 10.2 g/L, the “yield of baccatin III” value [2] was 18.7 mg/L and the yield of cephalomannine [2] was 3.2 mg/L. The yield of taxol [2] was 43.1 mg/L, the “baccatin III leaked in the medium” value [5] was “about 70%” and the “taxol leaked in the medium” value [5] was “about half”.
